Values quoted from earlier work in patent publication US20250127746A1, “TOPICAL CONTACT SENSITIZERS TO TREAT CANCER” (Squarex Pharmaceutical Corporation, priority 2023, published 2025).
“Also recorded” adds a separate entry of the source.

What was measured:
[1] = system: PBMCs stimulated with HSV-1
[2] = system: herpes labialis outbreaks
common warts = settings: Candida injected, SADBE applied topically
[3] = prevention of cold sore episodes

CCCCOc1c(OCCCC)c(=O)c1=O [SADBE, 3,4-Dibutoxy-3-cyclobutene-1,2-dione]
expression of interferon gamma (IFNG) by isolated PBMCs exposed to HSV ([1]; 8 weeks after a topical application to the arm): increased | PBMC proliferation and immune gene expression profile versus subjects with infrequent or zero outbreaks ([1]; 56 days after a single topical dose, versus day 1): more like those of the subjects with infrequent or zero outbreaks | change of immune response type ([1]; single dose, against both herpes simplex virus and Candida extract): from a type 2 immune response to a type 1 immune response | time after which efficacy begins to wane [2, 3]: 3 to 4 months | time for a dose to take effect [2, 3]: 2 to 8 weeks | number of oral herpes (herpes labialis) outbreaks ([2]; topical application to the arm): effective in preventing (reducing the number of) herpes labialis episodes; also recorded: reduce frequency of herpes labialis outbreaks; also recorded: prevent and reduce the number of oral herpes outbreaks | efficacy to treat common warts (common warts): effective in treating warts; also recorded: effective to treat common warts
